In patent US8232271B2 (priority 2008, dated 2012) one finds IC50 and melting point data, which are given here for 35 molecules.

In data set [1] the target is T1, HCV polymerase (NS5B570n-Con1) (Hepatitis C virus genotype 1b, UniProt Q9WMX2).
T1 construct: contains a 21 amino acid deletion at the C-terminus relative to the full-length HCV polymerase; 6-histidine (N); made in house; host or cells: E. coli BL21(DE) pLysS, plasmid pET17b
Description: HCV NS5B RNA polymerase activity assay. The class given is biochemical, HCV Con1 strain. On the procedure:
The enzymatic activity of HCV polymerase (NS5B570n-Con1) was measured as the incorporation of radiolabeled nucleotide monophosphates into acid insoluble RNA products. Unincorporated radiolabeled substrate was removed by filtration and scintillant was added to the washed and dried filter plate containing radiolabeled RNA product. The amount of RNA product generated by NS5B570-Con1 at the end of the reaction was directly proportional to the amount of light emitted by the scintillant.
The N-terminal 6-histidine tagged HCV polymerase, derived from HCV Con1 strain, genotype 1b (NS5B570n-Con1) contains a 21 amino acid deletion at the C-terminus relative to the full-length HCV polymerase and was purified from E. coli strain BL21(DE) pLysS. The construct, containing the coding sequence of HCV NS5B Con1 (GenBank accession number AJ242654) was inserted into the plasmid construct pET17b, downstream of a T7 promoter expression cassette and transformed into E. coli. A single colony was grown overnight as a starter culture and later used inoculate 10 L of LB media supplemented with 100 μg/mL ampicillin at 37° C. Protein expression was induced by the addition of 0.25 mM isopropyl-β-D-thiogalactopyranoside (IPTG) when optical density at […] of the culture was between 0.6 and 0.8 and cells were harvested after 16 to 18 h at 30° C. NS5B570n-Con1 was purified to homogeneity using a three-step protocol including subsequent column chromatography on Ni-NTA, SP-Sepharose HP and Superdex 75 resins.
Each 50 μl enzymatic reaction contained 20 nM RNA template derived from the complementary sequence of the Internal Ribosome Entry Site (cIRES), 20 nM NS5B570n-Con1 enzyme, 0.5 μCi of tritiated UTP (Perkin Elmer catalog no. TRK-412; specific activity: 30 to 60 Ci/mmol; stock solution concentration from 7.5×10^-5 M to 20.6×10^-6 M), 1 μM each ATP, CTP, and GTP, 40 mM Tris-HCl pH 8.0, 40 mM NaCl, 4 mM DTT (dithiothreitol), 4 mM MgCl2, and 5 μl of compound serial diluted in DMSO. Reaction mixtures were assembled in 96-well filter plates (cat #MADVN0B, Millipore Co.) and incubated for 2 h at 30° C. Reactions were stopped by addition of 10% final (v/v) trichloroacetic acid and incubated for 40 min at 4° C. Reactions were filtered, washed with 8 reaction volumes of 10% (v/v) trichloroacetic acetic acid, 4 reaction volumes of 70% (v/v) ethanol, air dried, and 25 μl of scintillant (Microscint 20, Perkin-Elmer) was added to each reaction well.
The amount of light emitted from the scintillant was converted to counts per minute (CPM) on a Topcount® plate reader (Perkin-Elmer, Energy Range: Low, Efficiency Mode: Normal, Count Time: 1 min, Background Subtract: none, Cross talk reduction: Off).
Data was analyzed in Excel® (Microsoft®) and ActivityBase® (Idbs®). The reaction in the absence of enzyme was used to determine the background signal, which was subtracted from the enzymatic reactions. Positive control reactions were performed in the absence of compound, from which the background corrected activity was set as 100% polymerase activity. All data was expressed as a percentage of the positive control. The compound concentration at which the enzyme-catalyzed rate of RNA synthesis was reduced by 50% (IC50) was calculated by fitting
[formula] equation (i) to the data. where “Y” corresponds to the relative enzyme activity (in %), “% Min” is the residual relative activity at saturating compound concentration, “% Max” is the relative maximum enzymatic activity, “X” corresponds to the compound concentration, and “S” is the Hill coefficient (or slope).

Take `COc1cc(CCC(=O)O)c(-c2ccc[nH]c2=O)cc1C(C)(C)C` [Compound I-1, 3-[4-tert-Butyl-5-methoxy-2-(2-oxo-1,2-dihydro-pyridin-3-yl)-phenyl]-propionic acid]: in data set [1], half-maximal inhibition (IC50) required 273 nM. That is a sub-micromolar value.
Consider `COc1cc(CO)c(-c2ccc[nH]c2=O)cc1C(C)(C)C` [Compound I-2, 3-(5-tert-Butyl-2-hydroxymethyl-4-methoxy-phenyl)-1H-pyridin-2-one], for which the melting point was 215 to 216 °C. 1010 nM corresponded to half-maximal inhibition in data set [1] (IC50).
`COC(=O)CCc1cc(OC)c(C(C)(C)C)cc1-c1ccc[nH]c1=O` [Compound I-3, 3-[4-tert-Butyl-5-methoxy-2-(2-oxo-1,2-dihydro-pyridin-3-yl)-phenyl]-propionic acid methyl ester]: the IC50 in data set [1] amounted to 954 nM.
For the molecule `COc1cc(C(=O)O)c(-c2ccc[nH]c2=O)cc1C(C)(C)C` [Compound I-4, 4-tert-Butyl-5-methoxy-2-(2-oxo-1,2-dihydro-pyridin-3-yl)-benzoic acid], the melting point is 244 to 245 °C. The IC50 in data set [1] worked out at 27 nM.
In the case of `COc1cc(CCO)c(-c2ccc[nH]c2=O)cc1C(C)(C)C` [Compound I-5, 3-[5-tert-Butyl-2-(2-hydroxy-ethyl)-4-methoxy-phenyl]-1H-pyridin-2-one], the melting point was in the range of 231.8 to 233.7 °C. In data set [1], the half-maximal inhibitory concentration (IC50) is 1580 nM.
For `CC(C)(C)c1ccc(NS(C)(=O)=O)c(-c2ccc[nH]c2=O)c1` [Compound I-6, N-[4-tert-Butyl-2-(2-oxo-1,2-dihydro-pyridin-3-yl)-phenyl]-methane sulfonamide], the melting point lay within 219.3 to 233.8 °C. In data set [1], this molecule registered an IC50 of 3850 nM.
The molecule `COc1cc(CC(=O)O)c(-c2ccc[nH]c2=O)cc1C(C)(C)C` [Compound I-7, [4-tert-Butyl-5-methoxy-2-(2-oxo-1,2-dihydro-pyridin-3-yl)-phenyl]-acetic acid] returned an IC50 in data set [1] of 156 nM.
`CC(=O)Nc1ccc(C(C)(C)C)cc1-c1ccc[nH]c1=O` [Compound I-8, N-[4-tert-butyl-2-(2-oxo-1,2-dihydro-pyridin-3-yl)-phenyl]-acetamide] yielded a melting point of 259 to 260 °C. This molecule registered a half-maximal inhibitory concentration (IC50) in data set [1] of 8560 nM.
In the case of `CNC(=O)c1cc(OC)c(C(C)(C)C)cc1-c1ccc[nH]c1=O` [Compound I-9, 4-tert-Butyl-5-methoxy-N-methyl-2-(2-oxo-1,2-dihydro-pyridin-3-yl)-benzamide], the midpoint of inhibition in data set [1], the IC50, lay at 442 nM.
Still for that read-out and setting: then `CNC(=O)Cc1cc(OC)c(C(C)(C)C)cc1-c1ccc[nH]c1=O` [Compound I-10, 2-[4-tert-Butyl-5-methoxy-2-(2-oxo-1,2-dihydro-pyridin-3-yl)-phenyl]-N-methyl-acetamide], with 700 nM; and `COc1cc(CC(N)=O)c(-c2ccc[nH]c2=O)cc1C(C)(C)C` [Compound I-11, 2-[4-tert-Butyl-5-methoxy-2-(2-oxo-1,2-dihydro-pyridin-3-yl)-phenyl]-acetamide], with 437 nM.
Still for that read-out and setting: then `COc1cc(CNC(C)=O)c(-c2ccc[nH]c2=O)cc1C(C)(C)C` [Compound I-12], with 125 nM.
Turning to `COc1cc(CNS(C)(=O)=O)c(-c2ccc[nH]c2=O)cc1C(C)(C)C` [Compound I-13, N-[4-tert-Butyl-5-methoxy-2-(2-oxo-1,2-dihydro-pyridin-3-yl)-benzyl]-methane sulfonamide], the half-maximal inhibitory concentration (IC50) in data set [1] worked out at 64 nM. This IC50 is about 2-fold lower than that of the molecule before.
Same read-out and setting: then `COc1cc(CN(C)C(C)=O)c(-c2ccc[nH]c2=O)cc1C(C)(C)C` [Compound I-14], with 151 nM.
In turn, `COc1cc(CS(C)(=O)=O)c(-c2ccc[nH]c2=O)cc1C(C)(C)C` [Compound I-15, 3-(5-tert-Butyl-2-methanesulfonylmethyl-4-methoxy-phenyl)-1H-pyridin-2-one] registered an IC50 in data set [1] of 746 nM.
Regarding `COc1cc(CN2CCCCS2(=O)=O)c(-c2ccc[nH]c2=O)cc1C(C)(C)C` [Compound I-16], the melting point was in the range of 225.8 to 226.1 °C. Besides, in data set [1], the IC50 was 35 nM.
In turn, `COc1cc(CCNS(C)(=O)=O)c(-c2ccc[nH]c2=O)cc1C(C)(C)C` [Compound I-17, N-{2-[4-tert-butyl-5-methoxy-2-(2-oxo-1,2-dihydro-pyridin-3-yl)-phenyl]-ethyl}-methanesulfonamide] had a melting point of 219.3 to 222.4 °C. Further, the IC50 in data set [1] amounted to 280 nM.
In data set [1], `COc1cc(CN2CCCC2=O)c(-c2ccc[nH]c2=O)cc1C(C)(C)C` [Compound I-18, 3-[5-tert-Butyl-4-methoxy-2-(2-oxo-pyrrolidin-1-ylmethyl)-phenyl]-1H-pyridin-2-one] had a half-maximal inhibitory concentration (IC50) of 121 nM.
As to `COc1cc(CNS(=O)(=O)Cc2ccccc2)c(-c2ccc[nH]c2=O)cc1C(C)(C)C` [Compound I-20], the melting point was 249 to 250 °C. This molecule returned an IC50 in data set [1] of 211 nM.
Consider `COc1cc(CN(C)C(=O)c2ccccc2)c(-c2ccc[nH]c2=O)cc1C(C)(C)C` [Compound I-22], for which the melting point is 236.2 to 238 °C. The IC50 in data set [1] turned out to be 25 nM.
Turning to `COc1cc(CN2CCCCC2=O)c(-c2ccc[nH]c2=O)cc1C(C)(C)C` [Compound I-23], the melting point was 224.6 to 228.9 °C. In addition, inhibition in data set [1] was half-maximal at 52 nM (IC50).
As to `COc1cc(CNS(=O)(=O)C(C)C)c(-c2ccc[nH]c2=O)cc1C(C)(C)C` [Compound I-25], the melting point fell in the range of 118 to 120 °C. Moreover, 183 nM corresponded to half-maximal inhibition in data set [1] (IC50).
For `COc1cc(CN(Cc2ccccc2)S(C)(=O)=O)c(-c2ccc[nH]c2=O)cc1C(C)(C)C` [Compound I-26], the melting point is 229 to 230 °C. This molecule showed an IC50 in data set [1] of 145 nM.
Molecule `CCN(Cc1cc(OC)c(C(C)(C)C)cc1-c1ccc[nH]c1=O)S(C)(=O)=O` [Compound I-27] displayed a melting point of 245 to 246 °C. For the same molecule, the IC50 in data set [1] was determined as 44 nM.
Take `COc1cc(CNC(=O)c2ccc(N(S(C)(=O)=O)S(C)(=O)=O)cc2)c(-c2ccc[nH]c2=O)cc1C(C)(C)C` [Compound I-44]: in data set [1], 774 nM corresponded to half-maximal inhibition (IC50).
`COc1cc(CNS(C)(=O)=O)c(-c2cc(F)c[nH]c2=O)cc1C(C)(C)C` [Compound I-45] displayed a half-maximal inhibitory concentration (IC50) in data set [1] of 687 nM.
On to `COc1cc(CNC(=O)c2cccnc2)c(-c2ccc[nH]c2=O)cc1C(C)(C)C` [Compound I-49], for which the IC50 in data set [1] was determined as 26 nM.
The same measure, in the same setting: then `COc1cc(CNS(N)(=O)=O)c(-c2ccc[nH]c2=O)cc1C(C)(C)C` [Compound I-50, N-[4-tert-Butyl-5-methoxy-2-(2-oxo-1,2-dihydro-pyridin-3-yl)-benzyl]-sulfamide], with 49 nM; and `COc1cc(CN2CCOC2=O)c(-c2ccc[nH]c2=O)cc1C(C)(C)C` [Compound I-74], with 56 nM.
In turn, `COc1cc(CN2C(=O)OC[C@H]2C(C)C)c(-c2ccc[nH]c2=O)cc1C(C)(C)C` [Compound I-75] returned an IC50 in data set [1] of 86 nM.
`COc1cc(CN2C(=O)OC[C@@H]2C(C)C)c(-c2ccc[nH]c2=O)cc1C(C)(C)C` [Compound I-76, 3-[5-tert-Butyl-2-((S)-4-isopropyl-2-oxo-oxazolidin-3-ylmethyl)-4-methoxy-phenyl]-1H-pyridin-2-one] yielded a 50% inhibitory concentration (IC50) in data set [1] of 134 nM. This IC50 is about 1.6-fold higher than that of the molecule before.
In data set [1], `COc1cc(C(=O)N2CCOC(CO)C2)c(-c2ccc[nH]c2=O)cc1C(C)(C)C` (stereo not drawn) [Compound I-78] yielded a concentration for half-maximal inhibition (IC50) of 1410 nM.
The same measure, in the same setting: the result for `COc1cc(C(=O)N2CCC(Oc3ccccc3)CC2)c(-c2ccc[nH]c2=O)cc1C(C)(C)C` [Compound I-79] reads 1320 nM.
Still for that read-out and setting: then `COc1cc(C(=O)NCC#N)c(-c2ccc[nH]c2=O)cc1C(C)(C)C` [Compound I-85], with 23 nM; and `COc1cc(CN(C(C)=O)c2ccccc2)c(-c2ccc[nH]c2=O)cc1C(C)(C)C` [Compound I-89], with 106 nM.
